Source: patent publication US11448563B2, “Force measurement method, force measurement device, force measurement system, force measurement program, and recording medium” (Tohoku University, priority 2017, dated 2022)

System: motor proteins
Experiment: Frequency distribution of the fluctuation value χ of cargo transport, measured with the force measurement device after adding Ciliobrevin to cells
Type: cell-based
Details: melanocytes; for number of clusters into which the frequency distribution of the fluctuation value χ is classified: four clusters without Ciliobrevin
Experimental: The dish after stain was placed on a heating plate (CU-201, Live Cell Instrument), and the stained melanin vesicles in melanocytes were observed under a dark-field microscope (IX71, Olympus) while the temperature was maintained at 37° C. A video was captured using an EMCCD camera (LucaS (Andor)) with a 100× objective lens (UPlanFL 100x/1.3, Plympus) at 98 frames per second. Time course data of the position of the center of gravity of melanin vesicles was calculated from the video using ImageJ (Rasband, 1997).
FIG. 15A, FIG. 15B and FIG. 15C are diagrams showing specific results showing that the fact that the frequency distribution of the fluctuation value χ changes according to addition of Ciliobrevin which is a reagent that inhibits a function of motor proteins into melanocytes is clear from measurement of χ using the force measurement device 1 of the embodiment.

Ciliobrevin
change in the number of clusters of the fluctuation value χ with the amount of Ciliobrevin added (comparison of 0, 20 and 40 μM (FIG. 15A-15C)): number of clusters decreases as the amount of Ciliobrevin added increases
number of clusters into which the frequency distribution of the fluctuation value χ is classified (concentration of Ciliobrevin in the cell culture medium 20 μM (FIG. 15B)): two clusters
number of clusters into which the frequency distribution of the fluctuation value χ is classified (concentration of Ciliobrevin in the cell culture medium 40 μM (FIG. 15C)): one cluster
